Values joined by “and” are separate entries in the source; they are usually repeats but may differ in a detail not shown here. Identical values can stand only once.
Experiments:
TPβ^WT = target: T1, TPβ^WT (Homo sapiens, UniProt P21731); test: [3H]SQ29,548 radioligand binding, Scatchard analysis, HEK.TPβ^WT
T1 construct: expressed in transfected cells
Method: Cells were harvested by centrifugation at 500×g at 4 °C for 5 min and washed three times with ice-cold Ca^2+/Mg^2+-free phosphate-buffered saline (PBS). TP radioligand binding assays were carried out at 30 °C for 30 min in 100 μl reactions in the presence of 0–40 nM [^3H] […] Protein determinations were carried out using the Bradford assay.
Radioligand binding and Scatchard analysis data were analysed using GraphPad Prisim V4.0 programme (GraphPad Software Inc., San Diego CA, USA). Statistical analyses were carried out using the unpaired Student's t test using the Statworks Analysis Package. p-values ≤ 0.01 indicated statistically significant differences.

TPα = target: T2, TPα (Homo sapiens, UniProt P21731); test: Agonist-mediated TP phosphorylation in whole cells, HEK.TPα; assay type: cell-based; conditions: 1 μM U46619 10 min, [32P]orthophosphate labelling, PhosphorImage
T2 construct: expressed in transfected cells
T2 sequence (P21731 1-343): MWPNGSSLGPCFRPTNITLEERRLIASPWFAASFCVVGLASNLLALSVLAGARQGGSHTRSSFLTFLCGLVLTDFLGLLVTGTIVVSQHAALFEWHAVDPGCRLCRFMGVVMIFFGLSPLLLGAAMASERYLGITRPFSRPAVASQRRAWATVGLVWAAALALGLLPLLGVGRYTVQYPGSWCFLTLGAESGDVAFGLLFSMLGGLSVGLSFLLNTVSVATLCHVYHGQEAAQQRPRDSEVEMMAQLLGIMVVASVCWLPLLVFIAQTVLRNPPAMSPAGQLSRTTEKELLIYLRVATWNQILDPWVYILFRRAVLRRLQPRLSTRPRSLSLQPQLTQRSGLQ
Method: Agonist-mediated TP phosphorylation in whole cells (1.8–2 × 10^6 cells/10 cm dish) was performed essentially as previously described. Briefly, cells were transiently co-transfected with pADVA (10 μg), pCMV:Gαq (25 μg) plus pcDNA:βArrestin2 (25 μg) approximately 48 h prior to labelling. Thereafter, cells were washed once in phosphate-free DMEM, 10% dialysed FBS and were metabolically labelled for 60 min in the same medium (2 ml/10 cm dish) containing 100 μCi/ml [^32P] orthophosphate (8000–9000 Ci/mmol) at 37 °C, 5% CO2. Where appropriate, the PKG kinase inhibitor KT 5823 (50 nM) or its vehicle was added during the labelling period. Thereafter, U46619 (1 μM) or an equivalent volume of vehicle (0.01% ethanol in HBS; 20 μl) were added and cells were incubated for 10 min at 37 °C, 5% CO2. Reactions were terminated by transferring the dishes to ice and aspirating the labelled medium and HA-epitope tagged TP receptors were processed and immunoprecipitated using the anti-HA 101R antibody as previously described. Electroblots were then exposed to Xomat XAR (Kodak) film to detect ^32P-labelled proteins. Thereafter, blots were subject to phosphorimage analysis, and the intensities of agonist-induced phosphorylation were expressed in arbitrary units relative to basal (vehicle-stimulated) levels. In parallel experiments, cells were incubated under identical conditions in the absence of [^32P] orthophosphate; HA-tagged TP receptors were immunoprecipitated from the same cell lines using the anti-HA 101R antibody and immunoblots were screened using the anti-HA 3F10 horseradish peroxidase-conjugated antibody.

T1 sequence (P21731 1-407 isoform P21731-2): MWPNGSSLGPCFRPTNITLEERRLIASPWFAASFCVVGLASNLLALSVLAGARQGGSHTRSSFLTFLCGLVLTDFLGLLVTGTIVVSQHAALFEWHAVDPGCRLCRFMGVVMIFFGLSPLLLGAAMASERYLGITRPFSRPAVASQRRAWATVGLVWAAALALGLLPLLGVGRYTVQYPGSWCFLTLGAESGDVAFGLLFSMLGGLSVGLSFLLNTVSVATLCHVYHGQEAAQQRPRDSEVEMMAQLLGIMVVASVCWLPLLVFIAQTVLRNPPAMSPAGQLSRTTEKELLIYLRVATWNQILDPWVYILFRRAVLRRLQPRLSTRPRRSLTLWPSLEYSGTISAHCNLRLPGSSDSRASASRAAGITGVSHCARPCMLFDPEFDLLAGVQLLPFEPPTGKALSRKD

Compound | Bmax (pmol/mg protein ± S.E.M.) (TPβ^WT) [pmol/mg protein] | U46619-mediated TPα phosphorylation relative to basal (vehicle) (TPα)
O=C(O)CCC/C=C\C[C@@H]1[C@H](CNNC(=O)Nc2ccccc2)[C@H]2CC[C@@H]1O2 [SQ29,548] | 3.64 ± 0.03 | –
CCCCC[C@H](O)/C=C/[C@@H]1[C@@H](C/C=C\CCCC(=O)O)[C@H]2CO[C@@H]1C2 [U46619] | – | 5–7 fold and 5 fold
